Data as given in PubChem BioAssay (NCI).
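Results reflect a 48-hour exposure of cells in 96-well plates to compound at five concentrations. TGI: total growth inhibition.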

Assays:
Experiment in all cases: NCI anticancer screen, dose series, 48 h
IGROV1 ovarian = test system: IGROV1 ovarian
SF-295 CNS = test system: SF-295 CNS
EKVX NSCLC = test system: EKVX NSCLC
SK-MEL-28 melanoma = test system: SK-MEL-28 melanoma
SW-620 colon = test system: SW-620 colon
COLO 205 colon = test system: COLO 205 colon
HCT-15 colon = test system: HCT-15 colon
RPMI-8226 leukemia = test system: RPMI-8226 leukemia
OVCAR-8 ovarian = test system: OVCAR-8 ovarian
UACC-62 melanoma = test system: UACC-62 melanoma
CAKI-1 renal = test system: CAKI-1 renal
SNB-78 CNS = test system: SNB-78 CNS
HCC-2998 colon = test system: HCC-2998 colon
SN12C renal = test system: SN12C renal
HT29 colon = test system: HT29 colon
UACC-257 melanoma = test system: UACC-257 melanoma
UO-31 renal = test system: UO-31 renal
NCI-H23 lung = test system: NCI-H23 lung
MALME-3M melanoma = test system: MALME-3M melanoma
A498 renal = test system: A498 renal
DLD-1 colon = test system: DLD-1 colon
M19-MEL melanoma = test system: M19-MEL melanoma
SNB-75 CNS = test system: SNB-75 CNS
CCRF-CEM leukemia = test system: CCRF-CEM leukemia
TK-10 renal = test system: TK-10 renal
ACHN renal = test system: ACHN renal
SK-OV-3 ovarian = test system: SK-OV-3 ovarian
NCI-H522 lung = test system: NCI-H522 lung
HCT-116 colon = test system: HCT-116 colon
LXFL 529 NSCLC = test system: LXFL 529 NSCLC
DMS 114 small cell lung = test system: DMS 114 small cell lung
OVCAR-3 ovarian = test system: OVCAR-3 ovarian
SK-MEL-5 melanoma = test system: SK-MEL-5 melanoma
K-562 leukemia = test system: K-562 leukemia
786-0 renal = test system: 786-0 renal
HOP-18 NSCLC = test system: HOP-18 NSCLC
HOP-92 NSCLC = test system: HOP-92 NSCLC
KM12 colon = test system: KM12 colon
DMS 273 small cell lung = test system: DMS 273 small cell lung
U251 CNS = test system: U251 CNS
NCI-H226 lung = test system: NCI-H226 lung
M14 melanoma = test system: M14 melanoma
MOLT-4 leukemia = test system: MOLT-4 leukemia
RXF 393 renal = test system: RXF 393 renal
A549 NSCLC = test system: A549 NSCLC
NCI-H460 lung = test system: NCI-H460 lung
LOX IMVI melanoma = test system: LOX IMVI melanoma
SK-MEL-2 melanoma = test system: SK-MEL-2 melanoma
SF-539 CNS = test system: SF-539 CNS
KM20L2 colon = test system: KM20L2 colon
SF-268 CNS = test system: SF-268 CNS
SNB-19 CNS = test system: SNB-19 CNS
OVCAR-5 ovarian = test system: OVCAR-5 ovarian
OVCAR-4 ovarian = test system: OVCAR-4 ovarian
SR leukemia = test system: SR leukemia
HL-60(TB) leukemia = test system: HL-60(TB) leukemia

Measured: TGI

CC1CC(=O)C2CC(CO)=CCCC2C1(C)CC/C(=C/CO)CO (configuration not stated)
not listed: LOX IMVI melanoma | SK-MEL-2 melanoma | SF-539 CNS | KM20L2 colon | SF-268 CNS | SNB-19 CNS | OVCAR-5 ovarian | OVCAR-4 ovarian | SR leukemia | HL-60(TB) leukemia
> 100 µM: all other assays above

N#CC1(Cc2ccccc2[N+](=O)[O-])c2ccccc2C2C(N1C(=O)c1ccccc1)C2(Cl)Cl (configuration not stated)
not listed: RPMI-8226 leukemia | SR leukemia | HL-60(TB) leukemia
> 100 µM: all other assays above

NC1C(O)C(O)C(CO)OC1n1cc(F)c(=O)[nH]c1=O (configuration not stated)
not listed: IGROV1 ovarian | EKVX NSCLC | OVCAR-8 ovarian | UACC-62 melanoma | UO-31 renal | A498 renal | M19-MEL melanoma | OVCAR-3 ovarian | K-562 leukemia | 786-0 renal | M14 melanoma | SF-539 CNS | KM20L2 colon
> 100 µM: all other assays above
